Laboratory results taken from EPA's ToxRefDB 2.

How the values were obtained:
rat [1] = details: Subchronic oral toxicity in rodents, other, Feed, dose end: 3 month, group: systemic, systemic / clinical chemistry / alkaline phosphatase (alp/alk) / alkaline phosphatase (alp/alk) + systemic / in life observation / body …
mouse [2] = details: Carcinogenicity, other, Oral, Feed, dose end: 18 month, group: systemic
rabbit = details: Prenatal developmental toxicity study, other, Oral, Gavage/Intubation, dose end: 19 GD
rat [3] = details: Prenatal developmental toxicity study, other, Oral, Gavage/Intubation, dose end: 15 GD
dog [4] = details: Chronic toxicity, beagle, Oral, Feed, dose end: 52 week, group: systemic
rat [5] = details: Multigenerational reproductive toxicity study, other, Oral, Feed, dose end: 2 generation
dog [6] = details: Subchronic oral toxicity in nonrodent, beagle, Feed, dose end: 13 week, group: systemic
rat [7] = details: Combined chronic toxicity/carcinogenicity, sprague dawley, Oral, Feed, dose end: 24 month, group: systemic
rat [8] = details: Multigenerational reproductive toxicity study, sprague dawley, Oral, Feed, dose end: 2 generation
rat [9] = details: Multigenerational reproductive toxicity study, sprague dawley, Oral, Feed, dose end: 2 generation; remark: listed apart in the source
mouse [10] = details: Carcinogenicity; cd1; Oral; Feed; dose end: 18 month; group: systemic; systemic / pathology gross / kidney / reduced size + systemic / pathology microscopic / kidney / inflammation + systemic / pathology …
rat [11] = details: Combined chronic toxicity/carcinogenicity, fischer, Oral, Feed, dose end: 24 month, group: systemic
rat [12] = details: Subchronic oral toxicity in rodents, fischer, Feed, dose end: 13 week, group: systemic
mouse [13] = details: Sub-acute repeat dose toxicity, cd1, Oral, Feed, dose end: 4 week, group: systemic
rat [14] = details: Subchronic oral toxicity in rodents, wistar, Feed, dose end: 90 day, group: systemic
[15] = systemic / in life observation / body weight / body weight + systemic / organ weight / spleen / relative to body weight
[16] = group: developmental, developmental / developmental malformation / bone / full supernumerary
[17] = group: developmental, developmental / developmental malformation / bone / full supernumerary + developmental / developmental malformation / bone / extra …
[18] = group: maternal, systemic / in life observation / body weight / body weight gain + systemic / in life observation / food consumption / food consumption + …
[19] = group: developmental, developmental / developmental malformation / bone / incomplete ossification
[20] = group: developmental, developmental / developmental malformation / bone / incomplete ossification + developmental / developmental malformation / bone / dumbbell …
[21] = group: maternal, systemic / in life observation / body weight / body weight gain + systemic / in life observation / food consumption / food consumption
[22] = systemic / hematology / anemia / anemia - nos + systemic / clinical chemistry / cholesterol / cholesterol + systemic / clinical chemistry / …
[23] = group: offspring, developmental / developmental landmark / eye opening / eye opening + systemic / in life observation / body weight / offspring (pup) weight
[24] = group: parental, systemic / organ weight / liver / relative to body weight
[25] = systemic / clinical chemistry / alkaline phosphatase (alp/alk) / alkaline phosphatase (alp/alk) + systemic / organ weight / liver / absolute…
[26] = systemic / organ weight / liver / relative to body weight
[27] = systemic / pathology microscopic / liver / hypertrophy
[28] = systemic / pathology microscopic / liver / hypertrophy + systemic / clinical chemistry / albumin / albumin + systemic / clinical chemistry…
[29] = group: offspring, developmental / offspring survival late / viability index / viability index
[30] = group: offspring, developmental / offspring survival late / viability index / viability index + systemic / in life observation / body weight / offspring (pup…
[31] = group: parental, systemic / organ weight / kidney / relative to body weight
[32] = group: parental, systemic / organ weight / kidney / relative to body weight + systemic / organ weight / kidney / absolute + systemic / pathology gross / …
[33] = group: parental, systemic / organ weight / kidney / absolute + systemic / organ weight / kidney / relative to body weight
[34] = group: reproductive, reproductive / offspring survival early / dead fetuses / dead fetuses + reproductive / offspring survival early / litter size / litter size
[35] = systemic / in life observation / clinical signs / perineal soiling + systemic / organ weight / adrenal gland / relative to body weight + …
[36] = systemic / pathology microscopic / kidney / degeneration
[37] = systemic / pathology microscopic / kidney / degeneration + systemic / in life observation / body weight / body weight gain + systemic / in …
[38] = systemic / pathology microscopic / kidney / inflammation + systemic / in life observation / mortality / mortality + systemic / pathology …

CC1=NNC(=O)N(/N=C/c2cccnc2)C1 [Pymetrozine]
LEL (rat [1]): 360 mg/kg/day
LOAEL (rat [1]): 360 mg/kg/day
NOAEL (rat [1]): 32.5 mg/kg/day
NOAEL (mouse [2]; systemic / in life observation / body weight / body weight + systemic / organ weight / liver / relative to body weight + systemic / …): 12 mg/kg/day
LEL (mouse [2]; [15]): 1.2 mg/kg/day
NEL (mouse [2]; [15]): < 1.2 mg/kg/day
LOAEL (mouse [2]; systemic / organ weight / liver / relative to body weight + systemic / pathology microscopic / liver / hypertrophy + systemic / pathology …): 250 mg/kg/day
LEL (rabbit; [16]): 75 mg/kg/day
LOAEL (rabbit; [16]): 75 mg/kg/day
NEL (rabbit; [17]): 10 mg/kg/day
NOAEL (rabbit; [17]): 10 mg/kg/day
LEL (rabbit; [18]): 75 mg/kg/day
LOAEL (rabbit; [18]): 75 mg/kg/day
NEL (rabbit; [18]): 10 mg/kg/day
NOAEL (rabbit; [18]): 10 mg/kg/day
LEL (rat [3]; [19]): 30 mg/kg/day
NEL (rat [3]; [19]): < 30 mg/kg/day
LOAEL (rat [3]; [20]): 300 mg/kg/day
NOAEL (rat [3]; [20]): 100 mg/kg/day
LEL (rat [3]; [21]): 100 mg/kg/day
LOAEL (rat [3]; [21]): 100 mg/kg/day
NEL (rat [3]; [21]): 30 mg/kg/day
NOAEL (rat [3]; [21]): 30 mg/kg/day
LEL (dog [4]; systemic / clinical chemistry / cholesterol / cholesterol + systemic / organ weight / liver / absolute + systemic / organ weight / liver / …): 5.33 mg/kg/day
NEL (dog [4]; [22]): 0.57 mg/kg/day
NOAEL (dog [4]; [22]): 5.33 mg/kg/day
LOAEL (dog [4]; systemic / hematology / anemia / anemia - nos + systemic / pathology microscopic / intestine large / [other] + systemic / pathology …): 27.8 mg/kg/day
LEL (rat [5]; [23]): 100 mg/kg/day
LOAEL (rat [5]; [23]): 100 mg/kg/day
NEL (rat [5]; [23]): 10 mg/kg/day
NOAEL (rat [5]; [23]): 10 mg/kg/day
LEL (rat [5]; [24]): 1.7 mg/kg/day
NEL (rat [5]; [24]): < 1.7 mg/kg/day
LOAEL (rat [5]; group: parental, systemic / pathology microscopic / liver / hypertrophy): 13.9 mg/kg/day
NOAEL (rat [5]; group: parental, systemic / pathology microscopic / liver / hypertrophy + systemic / in life observation / body weight / body weight + systemic / in life …): 1.4 mg/kg/day
LOAEL (dog [6]; [25]): 14 mg/kg/day
NOAEL (dog [6]; [25]): 3.12 mg/kg/day
LEL (dog [6]; [26]): 3.12 mg/kg/day
NEL (dog [6]; [26]): < 3.12 mg/kg/day
LEL (rat [7]; [27]): 3.76 mg/kg/day
LOAEL (rat [7]; [27]): 3.76 mg/kg/day
NEL (rat [7]; [28]): 0.377 mg/kg/day
NOAEL (rat [7]; [28]): 0.377 mg/kg/day

Nc1c(Cl)c(F)nc(OCC(=O)O)c1Cl [Fluroxypyr]
LEL (rat [8]; [29]): 500 mg/kg/day
LOAEL (rat [8]; [29]): 500 mg/kg/day
NEL (rat [8]; [30]): 100 mg/kg/day
NOAEL (rat [8]; [30]): 100 mg/kg/day
LEL (rat [8]; [31]): 100 mg/kg/day
NEL (rat [8]; [31]): < 100 mg/kg/day
LOAEL (rat [8]; [32]): 500 mg/kg/day
NOAEL (rat [8]; [32]): 100 mg/kg/day
LEL (rat [9]; group: offspring, developmental / developmental malformation / general / runts): 500 mg/kg/day
NEL (rat [9]; group: offspring, developmental / developmental malformation / general / runts + developmental / developmental malformation / eye / anophthalmia + …): 100 mg/kg/day
NOAEL (rat [9]; group: offspring, developmental / developmental malformation / general / runts + systemic / in life observation / body weight / offspring (pup) weight gain + …): 500 mg/kg/day
LOAEL (rat [9]; group: offspring, systemic / in life observation / body weight / offspring (pup) weight gain + systemic / in life observation / body weight / offspring (pup) …): 750 mg/kg/day
NOAEL (rat [9]; group: parental, systemic / organ weight / kidney / absolute + systemic / in life observation / body weight / body weight + systemic / in life observation / …): 100 mg/kg/day
LEL (rat [9]; [33]): 100 mg/kg/day
NEL (rat [9]; [33]): < 100 mg/kg/day
LOAEL (rat [9]; group: parental, systemic / organ weight / kidney / absolute + systemic / organ weight / kidney / relative to body weight + systemic / pathology microscopic…): 500 mg/kg/day
LEL (rat [9]; [34]): 750 mg/kg/day
LOAEL (rat [9]; [34]): 750 mg/kg/day
NEL (rat [9]; [34]): 500 mg/kg/day
NOAEL (rat [9]; [34]): 500 mg/kg/day
LEL (mouse [10]): 1000 mg/kg/day
LOAEL (mouse [10]): 1000 mg/kg/day
NEL (mouse [10]): 300 mg/kg/day
NOAEL (mouse [10]): 300 mg/kg/day
LEL (rat [11]; [35]): 100 mg/kg/day
NEL (rat [11]; [35]): < 100 mg/kg/day
NOAEL (rat [11]; [35]): 100 mg/kg/day
LOAEL (rat [11]; systemic / organ weight / kidney / relative to body weight + systemic / pathology microscopic / kidney / nephropathy + systemic / organ …): 500 mg/kg/day
LEL (rat [12]; systemic / hematology / hemoglobin (hgb) / hemoglobin (hgb) + systemic / urinalysis / specific gravity/osmolality / specific gravity/…): 700 mg/kg/day
NEL (rat [12]; systemic / in life observation / body weight / body weight gain + systemic / organ weight / testes / absolute + systemic / hematology / …): 320 mg/kg/day
NOAEL (rat [12]; systemic / organ weight / brain / absolute + systemic / hematology / erythrocyte (rbc) count differential / erythrocyte (rbc) + systemic / …): 700 mg/kg/day
LOAEL (rat [12]; systemic / organ weight / brain / absolute + systemic / in life observation / body weight / body weight gain + systemic / organ weight / …): 1000 mg/kg/day
LEL (mouse [13]; [36]): 132 mg/kg/day
LOAEL (mouse [13]; [36]): 132 mg/kg/day
NEL (mouse [13]; [37]): 14 mg/kg/day
NOAEL (mouse [13]; [37]): 14 mg/kg/day
LEL (rat [14]; [38]): 750 mg/kg/day
LOAEL (rat [14]; [38]): 750 mg/kg/day
NEL (rat [14]; systemic / urinalysis / ph / ph + systemic / clinical chemistry / alanine aminotransferase (alt/sgpt) / alanine aminotransferase (alt/sgpt…): 80 mg/kg/day
